Data taken from patent publication US20180148446A1, “PYRROLO [2,3-c] PYRIDINE COMPOUND, PROCESS FOR PRODUCING THE SAME, AND USE” (Takeda Pharmaceutical Company Limited, priority 2004, published 2018).

biological target: T1, H^+/K^+-ATPase (Sus scrofa, UniProt P19156); test: Proton, potassium-adenosine triphosphatase (H+/K+-ATPase) inhibitory activity test; type: biochemical; details: pig stomach mucous membrane microsome fraction; pH 6.5, 37° C.; malachite green colorimetry at 610 nm; read-out: IC50 (50% inhibitory concentration of proton and potassium-adenosine triphosphatase)
T1 construct: The obtained microsome fraction was used as the H^+/K^+-ATPase standard product; from tissue; host or cells: pig stomach (corpus ventriculi) mucous membrane microsome fraction
T1 sequence (P19156 2-1034 limits assumed): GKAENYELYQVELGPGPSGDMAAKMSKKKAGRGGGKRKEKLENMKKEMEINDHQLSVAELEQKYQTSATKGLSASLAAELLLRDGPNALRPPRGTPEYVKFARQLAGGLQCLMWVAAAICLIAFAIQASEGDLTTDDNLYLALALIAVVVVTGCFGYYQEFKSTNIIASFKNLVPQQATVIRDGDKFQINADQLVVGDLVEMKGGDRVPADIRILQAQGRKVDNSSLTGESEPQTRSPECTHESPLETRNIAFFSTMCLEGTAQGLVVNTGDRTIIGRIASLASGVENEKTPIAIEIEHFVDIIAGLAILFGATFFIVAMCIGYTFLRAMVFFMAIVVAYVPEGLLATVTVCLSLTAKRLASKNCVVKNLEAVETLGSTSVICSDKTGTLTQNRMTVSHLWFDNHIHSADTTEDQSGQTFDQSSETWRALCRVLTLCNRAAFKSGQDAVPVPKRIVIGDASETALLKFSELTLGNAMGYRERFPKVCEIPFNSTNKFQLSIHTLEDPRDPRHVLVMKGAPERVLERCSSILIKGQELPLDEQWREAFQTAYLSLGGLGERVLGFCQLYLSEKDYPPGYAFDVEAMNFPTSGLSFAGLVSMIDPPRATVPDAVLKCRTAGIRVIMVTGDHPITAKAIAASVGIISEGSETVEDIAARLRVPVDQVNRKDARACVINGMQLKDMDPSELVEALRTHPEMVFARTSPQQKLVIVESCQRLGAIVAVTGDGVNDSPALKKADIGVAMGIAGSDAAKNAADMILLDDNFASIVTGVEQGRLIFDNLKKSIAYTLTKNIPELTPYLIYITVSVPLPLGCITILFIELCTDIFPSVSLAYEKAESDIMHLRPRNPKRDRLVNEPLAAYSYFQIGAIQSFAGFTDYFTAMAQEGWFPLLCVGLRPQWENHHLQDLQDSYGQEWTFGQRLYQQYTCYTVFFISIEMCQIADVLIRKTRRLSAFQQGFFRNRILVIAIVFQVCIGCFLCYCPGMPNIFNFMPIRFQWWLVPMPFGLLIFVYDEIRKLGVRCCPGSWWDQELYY
T1 sequence (P18434 whole entry partner): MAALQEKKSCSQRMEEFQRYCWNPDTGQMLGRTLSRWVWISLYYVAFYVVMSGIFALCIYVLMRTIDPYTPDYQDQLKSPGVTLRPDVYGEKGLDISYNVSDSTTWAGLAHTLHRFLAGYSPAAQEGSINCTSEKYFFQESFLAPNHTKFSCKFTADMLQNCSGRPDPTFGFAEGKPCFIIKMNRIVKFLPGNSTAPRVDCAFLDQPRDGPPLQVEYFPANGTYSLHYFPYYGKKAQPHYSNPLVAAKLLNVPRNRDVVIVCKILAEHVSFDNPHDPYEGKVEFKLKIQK
Experimental: Proton, Potassium-Adenosine Triphosphatase (H^+/K^+-ATPase) Inhibitory Activity Test
According to the method of Wallmark et al. [Biochem. Biophys. Acta., 728, 31 (1983)], a stomach mucous membrane microsome fraction was prepared from the stomach of a pig. First, the corpus ventriculi was isolated, washed with tap water, immersed in 3M brine, and the surface of the mucous membrane was wiped with a paper towel. The stomach mucous membrane was separated, chopped, and homogenized using polytron (Kinematica) in 0.25 M saccharose solution (pH 6.8) containing 1 mM EDTA and 10 mM tris hydrochloric acid. The obtained homogenate was centrifuged at 20,000×g for 30 min, and the supernatant was centrifuged at 100,000×g for 90 min. After suspending the precipitated part in a 0.25 M saccharose solution, layered on a 0.25 M saccharose solution containing 7.5% Ficoll, and centrifuged at 100,000×g for 5 hr. The fraction of the interface between the both layers was collected and washed by centrifugation with a 0.25 M saccharose solution.
The obtained microsome fraction was used as the H^+/K^+-ATPase standard product.
A test compound (5 μL) dissolved in a 10% aqueous dimethyl sulfoxide solution was added to 40 μL of a 50 mM Hepes-tris buffer (5 mM magnesium chloride, 10 mM potassium chloride, 10 μM valinomycin, pH=6.5) containing 2.5 μg/mL (based on the protein concentration) of an enzyme standard product, and the mixture was incubated at 37° C. for 30 min. The enzyme reaction was started by the addition of 5 μL of a 2 mM adenosine triphosphate tris salt solution (50 mM Hepes-tris buffer (5 mM magnesium chloride, pH 6.5)). The enzyme reaction was carried out at 37° C. for 20 min, and quenched by adding 15 μL of malachite green solution (a mixture of 0.12% malachite green sulfuric acid (5N) solution, 7.5% ammonium molybdate and 11% Tween 20 at a ratio of 100:25:2). The mixture was stood at room temperature for 15 min, and the resulting reaction product of inorganic phosphorus and malachite green was colorimetrically determined at a wavelength of 610 nm. The amount of inorganic phosphoric acid in a reaction solution free of potassium chloride was measured in the same manner. The H^+/K^+-ATPase activity was measured by subtracting the obtained amount from the amount of inorganic phosphoric acid in the presence of potassium chloride. The inhibitory rate (%) was determined from the control activity value and the activity value at each concentration of the test compound, and 50% inhibitory concentration (IC50) of proton and potassium-adenosine triphosphatase was determined.

Row | SMILES | IC50 [nM]
1 | CCCn1c(C)c(C)c2ccnc(NCc3ccc(F)cc3C)c21 [Example 26, N-(4-fluoro-2-methylbenzyl)-2,3-dimethyl-1-propyl-1H-pyrrolo[2,3-c]pyridine-7-amine] | 24
2 | Cc1[nH]c2c(NCc3ccccc3)nccc2c1C [Example 12, N-benzyl-2,3-dimethyl-1H-pyrrolo[2,3-c]pyridine-7-amine] | 27
3 | Cc1cc2ccnc(NCc3ccccc3)c2n1CC1CC1 [Example 5, N-benzyl-1-(cyclopropylmethyl)-2-methyl-1H-pyrrolo[2,3-c]pyridine-7-amine] | 1200
4 | Cc1[nH]c2c(NC(=O)c3ccccc3)nccc2c1C [Example 74, N-[7-(2,3-dimethyl-1H-pyrrolo[2,3-c]pyridyl)]benzamide] | 1800

Further compounds by falling IC50, results first:

Row | IC50 [nM] | SMILES
5 | 980 | CCCn1c(C)cc2ccnc(NCc3ccccc3)c21 [Example 2, N-benzyl-2-methyl-1-propyl-1H-pyrrolo[2,3-c]pyridine-7-amine]
6 | 14 | Cc1cccc(C)c1CNc1nccc2c(C)c(C)[nH]c12 [Example 14, N-(2,6-dimethylbenzyl)-2,3-dimethyl-1H-pyrrolo[2,3-c]pyridine-7-amine]
7 | 9.8 | Cc1[nH]c2c(NC3CCc4ccccc43)nccc2c1C (centres unmarked) [Example 16, N-(2,3-dihydro-1H-inden-1-yl)-2,3-dimethyl-1H-pyrrolo[2,3-c]pyridine-7-amine]
8 | 3.2 | Cc1cc(F)ccc1CNc1nccc2c(CO)c(C)n(CC(C)C)c12 [Example 65, {7-[(4-fluoro-2-methylbenzyl)amino]-1-isobutyl-2-methyl-1H-pyrrolo[2,3-c]pyridin-3-yl}methanol]
